Activity calls are given as the source filed them. The rule behind the calls is not given here.
Assays:
[1] = target: RAC-alpha serine/threonine-protein kinase (Mus musculus) (UniProt P31750); assay: Inhibition of AKT phosphorylation in RANKL-induced ICR mouse bone marrow macrophages at 10 uM preincubated for 1 hr followed by RANKL-stimulation and measured after 5 to 30 mins by Western blot analysis
BMDM [2] = assay: Inhibition of RANKL-induced osteoclastogenesis in ICR mouse bone marrow macrophages harboring constitutively active IKKbeta assessed as reduction in TRAP-positive multinucleated osteoclasts at 10 uM after 3 days by TRAP staining based assay; type: functional, cell-based
Osteoclast [3] = assay: Inhibition of bone-resorbing in ICR mouse osteoclasts assessed as reduction in resorption at 10 uM after 24 hrs by pit formation assay; type: functional, cell-based
[4] = target: I-kappa-B kinase (Mus musculus) (UniProt Q60680+O88351+O88522); assay: Inhibition of IKappaB phosphorylation in RANKL-induced ICR mouse bone marrow macrophages at 10 uM preincubated for 1 hr followed by RANKL-stimulation and measured after 5 to 30 mins by Western blot analysis; type: protein-complex assay
Mus musculus [5] = assay: Anti-resorptive activity in ICR mouse model of LPS-Induced bone loss assessed as increase in bone volume per tissue volume in proximal femurs at 10 mg/kg, po for 8 days by micro-CT analysis; type: functional, organism-based
BMDM [6] = assay: Anti-osteoporosis activity in ICR mouse bone marrow macrophages assessed as inhibition of RANKL-induced c-Fos mRNA expression at 10 uM after 12 to 48 hrs by RT-PCR analysis; type: functional, cell-based
Mus musculus [7] = assay: Anti-resorptive activity in ICR mouse model of LPS-Induced bone loss assessed as increase in trabecular number in proximal femurs at 10 mg/kg, po for 8 days by micro-CT analysis; type: functional, organism-based
Osteoclast [8] = assay: Inhibition of bone-resorbing in ICR mouse osteoclasts assessed as downregulation of Ctsk-mRNA expression at 10 uM after 12 to 48 hrs by RT-PCR analysis; type: functional, cell-based
[9] = target: T1, 1-phosphatidylinositol 4,5-bisphosphate phosphodiesterase gamma-2 (Mus musculus) (UniProt Q8CIH5); assay: Inhibition of PLCgamma2 in ICR mouse bone marrow macrophages assessed as reduction in calcium influx at 10 uM after 3 days by Fluo-3/AM staining based confocal microscopic analysis
T1 sequence (whole entry): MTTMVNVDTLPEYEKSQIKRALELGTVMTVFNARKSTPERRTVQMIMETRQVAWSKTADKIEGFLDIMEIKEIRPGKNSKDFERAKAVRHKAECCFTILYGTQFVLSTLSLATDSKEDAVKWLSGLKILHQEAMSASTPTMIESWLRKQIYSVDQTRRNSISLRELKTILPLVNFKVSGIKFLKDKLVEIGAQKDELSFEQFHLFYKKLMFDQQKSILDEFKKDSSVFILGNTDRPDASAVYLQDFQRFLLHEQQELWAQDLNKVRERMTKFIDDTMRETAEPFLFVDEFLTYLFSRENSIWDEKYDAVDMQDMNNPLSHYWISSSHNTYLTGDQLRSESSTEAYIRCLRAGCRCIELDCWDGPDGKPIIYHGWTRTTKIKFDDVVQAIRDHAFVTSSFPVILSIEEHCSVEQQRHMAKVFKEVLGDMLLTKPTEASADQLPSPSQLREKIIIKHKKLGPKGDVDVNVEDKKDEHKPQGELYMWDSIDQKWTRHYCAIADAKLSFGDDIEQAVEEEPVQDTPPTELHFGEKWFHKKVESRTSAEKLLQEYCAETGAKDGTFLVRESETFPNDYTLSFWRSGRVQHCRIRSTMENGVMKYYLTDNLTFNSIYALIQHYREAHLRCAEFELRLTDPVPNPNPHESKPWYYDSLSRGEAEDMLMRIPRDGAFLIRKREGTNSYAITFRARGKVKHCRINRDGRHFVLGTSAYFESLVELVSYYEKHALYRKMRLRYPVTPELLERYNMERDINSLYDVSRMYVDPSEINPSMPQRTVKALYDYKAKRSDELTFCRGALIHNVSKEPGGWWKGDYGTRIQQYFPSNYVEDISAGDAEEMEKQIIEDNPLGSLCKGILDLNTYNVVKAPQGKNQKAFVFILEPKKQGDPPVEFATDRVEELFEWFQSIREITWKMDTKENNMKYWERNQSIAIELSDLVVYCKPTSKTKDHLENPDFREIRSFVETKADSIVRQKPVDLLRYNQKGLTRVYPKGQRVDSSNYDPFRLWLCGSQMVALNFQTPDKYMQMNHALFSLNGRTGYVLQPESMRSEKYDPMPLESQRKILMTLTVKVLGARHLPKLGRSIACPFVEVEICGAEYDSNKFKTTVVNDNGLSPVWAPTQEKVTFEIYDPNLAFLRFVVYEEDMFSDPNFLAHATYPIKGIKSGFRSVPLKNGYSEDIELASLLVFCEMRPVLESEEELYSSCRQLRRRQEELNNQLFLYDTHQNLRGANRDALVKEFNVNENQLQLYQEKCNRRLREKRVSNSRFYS

BMDM [10] = assay: Cytotoxicity against ICR mouse bone marrow macrophages assessed as reduction in cell viability up to 10 uM after 3 days by XTT assay; type: cell-based; settings: 72 h
BMDM [11] = assay: Inhibition of RANKL-induced osteoclastogenesis in ICR mouse bone marrow macrophages assessed as reduction in TRAP-positive multinucleated osteoclasts after 4 days by TRAP staining based assay; type: functional, cell-based
BMDM [12] = assay: Anti-osteoporosis activity in ICR mouse bone marrow macrophages assessed as inhibition of RANKL-induced OC-STAMP mRNA expression at 10 uM after 12 to 48 hrs by RT-PCR analysis; type: functional
Mus musculus [13] = assay: Anti-resorptive activity in ICR mouse model of LPS-Induced bone loss assessed as reduction in trabecular separation in proximal femurs at 10 mg/kg, po for 8 days by micro-CT analysis; type: functional, organism-based
Mus musculus [14] = assay: Anti-resorptive activity in ICR mouse model of LPS-Induced bone loss assessed as increase in trabecular bone in femurs at 10 mg/kg, po for 8 days by H and E staining based light microscopic analysis; type: functional, organism-based
BMDM [15] = assay: Anti-osteoporosis activity in ICR mouse bone marrow macrophages assessed as inhibition of RANKL-induced NFATc1 protein expression at 10 uM after 12 to 48 hrs by Western blot analysis; type: functional, cell-based
[16] = target: T1, 1-phosphatidylinositol 4,5-bisphosphate phosphodiesterase gamma-2 (Mus musculus); assay: Inhibition of PLCgamma2 phosphorylation in RANKL-induced ICR mouse bone marrow macrophages at 10 uM preincubated for 1 hr followed by RANKL-stimulation and measured after 5 to 30 mins by Western blot analysis
BMDM [17] = assay: Anti-osteoporosis activity in ICR mouse bone marrow macrophages assessed as inhibition of RANKL-induced OSCAR mRNA expression at 10 uM after 12 to 48 hrs by RT-PCR analysis; type: functional
BMDM [18] = assay: Anti-osteoporosis activity in ICR mouse bone marrow macrophages assessed as inhibition of RANKL-induced NFATc1 mRNA expression at 10 uM after 12 to 48 hrs by RT-PCR analysis; type: functional, cell-based
Mus musculus [19] = assay: Anti-resorptive activity in ICR mouse model of LPS-Induced bone loss assessed as reduction in bone loss in proximal femurs at 10 mg/kg, po for 8 days by micro-CT analysis; type: functional, organism-based
BMDM [20] = assay: Anti-osteoporosis activity in ICR mouse bone marrow macrophages assessed as inhibition of RANKL-induced MMP9 mRNA expression at 10 uM after 12 to 48 hrs by RT-PCR analysis; type: functional
HEK-293T = assay: Trans-suppression of NFkappaB (unknown origin) in HEK293T cells cotransfected with betagalactosidase at 10 uM incubated for 12 hrs followed by RANKL-stimulation by luciferase reporter gene assay; type: cell-based; settings: Homo sapiens
Mus musculus [21] = assay: Anti-resorptive activity in ICR mouse model of LPS-Induced bone loss assessed as inhibition of TRAP-positive multinucleated osteoclasts formation in femurs at 10 mg/kg, po for 8 days by TRAP staining based light microscopic analysis; type: functional, organism-based
BMDM [22] = assay: Anti-osteoporosis activity in ICR mouse bone marrow macrophages assessed as inhibition of RANKL-induced c-Fos protein expression at 10 uM after 12 to 48 hrs by Western blot analysis; type: functional, cell-based
BMDM [23] = assay: Inhibition of RANKL-induced osteoclastogenesis in ICR mouse bone marrow harboring constitutively active AKT macrophages assessed as reduction in TRAP-positive multinucleated osteoclasts at 10 uM after 3 days by TRAP staining based assay; type: functional, cell-based
BMDM [24] = assay: Anti-osteoporosis activity in ICR mouse bone marrow macrophages assessed as inhibition of RANKL-induced DC-STAMP mRNA expression at 10 uM after 12 to 48 hrs by RT-PCR analysis; type: functional
BMDM [25] = assay: Anti-osteoporosis activity in ICR mouse bone marrow macrophages assessed as inhibition of RANKL-induced ATP6v0d2 mRNA expression at 10 uM after 12 to 48 hrs by RT-PCR analysis; type: functional
BMDM [26] = assay: Anti-osteoporosis activity in ICR mouse bone marrow macrophages assessed as inhibition of RANKL-induced beta3-integrin mRNA expression at 10 uM after 12 to 48 hrs by RT-PCR analysis; type: functional
[27] = target: RAC-alpha serine/threonine-protein kinase (Mus musculus) (UniProt P31750); assay: Inhibition of AKT phosphorylation in RANKL-induced ICR mouse bone marrow macrophages at 1 uM preincubated for 1 hr followed by RANKL-stimulation and measured after 5 to 30 mins by Western blot analysis
BMDM [28] = assay: Anti-osteoporosis activity in ICR mouse bone marrow macrophages assessed as inhibition of RANKL-induced c-Fos protein expression at 0.1 to 1 uM after 24 hrs by Western blot analysis; type: functional, cell-based
BMDM [29] = assay: Anti-osteoporosis activity in ICR mouse bone marrow macrophages assessed as inhibition of RANKL-induced NFATc1 protein expression at 0.1 to 1 uM after 24 hrs by Western blot analysis; type: functional, cell-based
BMDM [30] = assay: Inhibition of RANKL-induced osteoclastogenesis in ICR mouse bone marrow macrophages assessed as reduction in TRAP-positive multinucleated osteoclasts at 0.1 to 1 uM after 3 days by TRAP staining based assay; type: functional, cell-based

Chain of RAC-alpha serine/threonine-protein kinase (Mus musculus) (P31750 whole entry): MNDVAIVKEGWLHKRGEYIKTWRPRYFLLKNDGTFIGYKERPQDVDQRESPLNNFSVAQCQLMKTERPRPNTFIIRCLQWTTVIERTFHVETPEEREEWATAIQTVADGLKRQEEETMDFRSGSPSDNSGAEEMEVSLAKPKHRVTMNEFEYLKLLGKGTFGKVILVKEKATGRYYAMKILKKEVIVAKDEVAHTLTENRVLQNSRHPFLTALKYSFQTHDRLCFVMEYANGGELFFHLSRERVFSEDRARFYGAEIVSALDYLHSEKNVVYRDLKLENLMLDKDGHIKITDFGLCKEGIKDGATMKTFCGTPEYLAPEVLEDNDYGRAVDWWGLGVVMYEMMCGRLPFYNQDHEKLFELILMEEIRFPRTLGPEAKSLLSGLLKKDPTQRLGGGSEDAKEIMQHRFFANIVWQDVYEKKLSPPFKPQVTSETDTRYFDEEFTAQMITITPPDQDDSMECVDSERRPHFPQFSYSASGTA

## C=C(C)[C@@H]1CC[C@]2(C(=O)O)CC[C@]3(C)[C@H](CC[C@@H]4[C@@]5(C)CC[C@H](O)C(C)(C)[C@@H]5CC[C@]43C)[C@@H]12 [BETULINIC ACID]
[1]
  inhibition: Active
BMDM [2]
  inhibition: Active
Osteoclast [3]
  inhibition: Active
[4]
  inhibition: Active
Mus musculus [5]
  Activity: Active
BMDM [6]
  inhibition: Active
Mus musculus [7]
  Activity: Active
Osteoclast [8]
  inhibition: Active
[9]
  inhibition: Active
BMDM [10]
  Activity: Non-Toxic
BMDM [11]
  inhibition: Dose-dependent effect
BMDM [12]
  fold change (FC): 2 - 4
Mus musculus [13]
  Activity: Active
Mus musculus [14]
  Activity: Active
BMDM [15]
  inhibition: Active
[16]
  inhibition: Active
BMDM [17]
  fold change (FC): 2 - 4
BMDM [18]
  inhibition: Active
Mus musculus [19]
  Activity: Active
BMDM [20]
  fold change (FC): 2 - 4
HEK-293T
  Activity: Active
Mus musculus [21]
  inhibition: Active
BMDM [22]
  inhibition: Active
BMDM [23]
  inhibition: inactive
BMDM [24]
  fold change (FC): 2 - 4
BMDM [25]
  fold change (FC): 2 - 4
BMDM [26]
  fold change (FC): 2 - 4

## NC1(c2ccc(-c3nc4ccn5c(=O)[nH]nc5c4cc3-c3ccccc3)cc2)CCC1
[27]
  inhibition: Active
BMDM [28]
  inhibition: Active
BMDM [29]
  inhibition: Active
BMDM [30]
  inhibition: Active
